Laboratory results published in PubChem BioAssay (NCI).
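Five compound concentrations were applied to cells in 96-well plates for 48 hours; endpoints were derived by simple linear interpolation of the resulting dose-response curve. At the TGI there is no net growth.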

What was measured:
Test in all cases: inhibition of tumour cell growth, NCI panel, 48 h
PC-3 prostate = tested on: PC-3 prostate
U251 CNS = tested on: U251 CNS
NCI-H522 lung = tested on: NCI-H522 lung
KM12 colon = tested on: KM12 colon
SW-620 colon = tested on: SW-620 colon
HT29 colon = tested on: HT29 colon
HCT-15 colon = tested on: HCT-15 colon
SK-MEL-5 melanoma = tested on: SK-MEL-5 melanoma
SF-539 CNS = tested on: SF-539 CNS
MOLT-4 leukemia = tested on: MOLT-4 leukemia
HCC-2998 colon = tested on: HCC-2998 colon
OVCAR-5 ovarian = tested on: OVCAR-5 ovarian
BT-549 breast = tested on: BT-549 breast
A549 NSCLC = tested on: A549 NSCLC
IGROV1 ovarian = tested on: IGROV1 ovarian
HS 578T breast = tested on: HS 578T breast
OVCAR-4 ovarian = tested on: OVCAR-4 ovarian
MDA-MB-231 breast = tested on: MDA-MB-231 breast
UO-31 renal = tested on: UO-31 renal
OVCAR-3 ovarian = tested on: OVCAR-3 ovarian
K-562 leukemia = tested on: K-562 leukemia
M14 melanoma = tested on: M14 melanoma
ACHN renal = tested on: ACHN renal
T-47D breast = tested on: T-47D breast
SN12C renal = tested on: SN12C renal
HL-60(TB) leukemia = tested on: HL-60(TB) leukemia
SF-295 CNS = tested on: SF-295 CNS
NCI/ADR-RES ovarian = tested on: NCI/ADR-RES ovarian
NCI-H226 lung = tested on: NCI-H226 lung
HOP-62 NSCLC = tested on: HOP-62 NSCLC
A498 renal = tested on: A498 renal
TK-10 renal = tested on: TK-10 renal
OVCAR-8 ovarian = tested on: OVCAR-8 ovarian
CAKI-1 renal = tested on: CAKI-1 renal
SK-OV-3 ovarian = tested on: SK-OV-3 ovarian
786-0 renal = tested on: 786-0 renal
UACC-62 melanoma = tested on: UACC-62 melanoma
UACC-257 melanoma = tested on: UACC-257 melanoma
MALME-3M melanoma = tested on: MALME-3M melanoma
SNB-19 CNS = tested on: SNB-19 CNS
HCT-116 colon = tested on: HCT-116 colon
NCI-H460 lung = tested on: NCI-H460 lung
SF-268 CNS = tested on: SF-268 CNS
SK-MEL-2 melanoma = tested on: SK-MEL-2 melanoma
EKVX NSCLC = tested on: EKVX NSCLC
SK-MEL-28 melanoma = tested on: SK-MEL-28 melanoma
HOP-92 NSCLC = tested on: HOP-92 NSCLC
LOX IMVI melanoma = tested on: LOX IMVI melanoma
RXF 393 renal = tested on: RXF 393 renal
DU-145 prostate = tested on: DU-145 prostate
MDA-MB-435 = tested on: MDA-MB-435
SR leukemia = tested on: SR leukemia
MDA-N = tested on: MDA-N
COLO 205 colon = tested on: COLO 205 colon
MCF7 breast = tested on: MCF7 breast
CCRF-CEM leukemia = tested on: CCRF-CEM leukemia
SNB-75 CNS = tested on: SNB-75 CNS
RPMI-8226 leukemia = tested on: RPMI-8226 leukemia
NCI-H23 lung = tested on: NCI-H23 lung

Measured: TGI

Cc1ccc(S(=O)(=O)C2=C([Si](C)(C)C)C3CC2[C@@H]2C4C=CC(CC4)[C@H]32)cc1 (stereo not given in full)
77.4 µM: SK-MEL-2 melanoma
99.2 µM: TK-10 renal
> 100 µM: PC-3 prostate | U251 CNS | NCI-H522 lung | KM12 colon | SW-620 colon | HT29 colon | HCT-15 colon | SK-MEL-5 melanoma | MOLT-4 leukemia | HCC-2998 colon | OVCAR-5 ovarian | BT-549 breast | A549 NSCLC | IGROV1 ovarian | HS 578T breast | OVCAR-4 ovarian | MDA-MB-231 breast | UO-31 renal | OVCAR-3 ovarian | K-562 leukemia | M14 melanoma | ACHN renal | T-47D breast | SN12C renal | HL-60(TB) leukemia | SF-295 CNS | NCI/ADR-RES ovarian | NCI-H226 lung | HOP-62 NSCLC | A498 renal | OVCAR-8 ovarian | CAKI-1 renal | SK-OV-3 ovarian | 786-0 renal | UACC-62 melanoma | UACC-257 melanoma | MALME-3M melanoma | HCT-116 colon | NCI-H460 lung | SF-268 CNS | EKVX NSCLC | SK-MEL-28 melanoma | HOP-92 NSCLC | LOX IMVI melanoma | RXF 393 renal | DU-145 prostate | MDA-MB-435 | SR leukemia | MDA-N | COLO 205 colon | MCF7 breast
88 µM: SF-539 CNS
76.1 µM: SNB-19 CNS

COc1ccc(CNc2nc3ccccc3nc2C(=O)O)cc1OC
> 100 µM: PC-3 prostate | U251 CNS | NCI-H522 lung | KM12 colon | SW-620 colon | HT29 colon | HCT-15 colon | SK-MEL-5 melanoma | SF-539 CNS | MOLT-4 leukemia | HCC-2998 colon | BT-549 breast | A549 NSCLC | IGROV1 ovarian | HS 578T breast | OVCAR-4 ovarian | MDA-MB-231 breast | UO-31 renal | OVCAR-3 ovarian | K-562 leukemia | ACHN renal | T-47D breast | CCRF-CEM leukemia | SN12C renal | HL-60(TB) leukemia | SF-295 CNS | SNB-75 CNS | NCI/ADR-RES ovarian | NCI-H226 lung | HOP-62 NSCLC | A498 renal | TK-10 renal | OVCAR-8 ovarian | CAKI-1 renal | SK-OV-3 ovarian | 786-0 renal | UACC-62 melanoma | RPMI-8226 leukemia | UACC-257 melanoma | MALME-3M melanoma | NCI-H23 lung | HCT-116 colon | NCI-H460 lung | SF-268 CNS | EKVX NSCLC | SK-MEL-28 melanoma | HOP-92 NSCLC | LOX IMVI melanoma | RXF 393 renal | DU-145 prostate | MDA-MB-435 | SR leukemia | MDA-N | COLO 205 colon | MCF7 breast

COc1ccc(NC(=S)N/N=C(\c2ccccc2)c2ccccn2)cc1
14.8 µM: SF-268 CNS
18.4 µM: LOX IMVI melanoma
18.5 µM: SNB-19 CNS | SK-MEL-28 melanoma
9.59 µM: SF-295 CNS
15.7 µM: RXF 393 renal
16.4 µM: NCI-H23 lung
9.87 µM: HOP-92 NSCLC
13.6 µM: T-47D breast
2.61 µM: M14 melanoma | NCI-H226 lung
15.9 µM: KM12 colon
2.27 µM: TK-10 renal
0.703 µM: MCF7 breast
15 µM: HCT-15 colon
11.7 µM: OVCAR-8 ovarian
13.2 µM: OVCAR-3 ovarian
27.1 µM: U251 CNS
5.33 µM: HOP-62 NSCLC
22.3 µM: HCC-2998 colon
3.03 µM: SF-539 CNS
16.9 µM: OVCAR-4 ovarian | MDA-MB-435
> 40.1 µM: CCRF-CEM leukemia
7.24 µM: SN12C renal
17.6 µM: PC-3 prostate
16.2 µM: MDA-N
11.2 µM: 786-0 renal | DU-145 prostate
11 µM: MALME-3M melanoma
6.5 µM: OVCAR-5 ovarian
23.8 µM: NCI/ADR-RES ovarian
56.8 µM: HS 578T breast
6.47 µM: NCI-H460 lung
14.4 µM: MDA-MB-231 breast
5.57 µM: SR leukemia
2.65 µM: EKVX NSCLC
23.6 µM: HT29 colon
15.3 µM: NCI-H522 lung
14.1 µM: SK-MEL-2 melanoma
13.7 µM: HCT-116 colon
10.5 µM: ACHN renal | CAKI-1 renal
20.2 µM: SW-620 colon | BT-549 breast
1.9 µM: HL-60(TB) leukemia
30.3 µM: COLO 205 colon
17.2 µM: IGROV1 ovarian
2.44 µM: UACC-257 melanoma
14.2 µM: A549 NSCLC
10.2 µM: UACC-62 melanoma
16 µM: A498 renal | SK-OV-3 ovarian
6.53 µM: SK-MEL-5 melanoma
8.73 µM: UO-31 renal
> 20.6 µM: RPMI-8226 leukemia
3.06 µM: K-562 leukemia

CC1C2CC(CC23OCC(CCl)O3)C1(C)C (stereo not given)
> 100 µM: PC-3 prostate | NCI-H522 lung | KM12 colon | SW-620 colon | HT29 colon | HCT-15 colon | SK-MEL-5 melanoma | SF-539 CNS | MOLT-4 leukemia | HCC-2998 colon | BT-549 breast | A549 NSCLC | IGROV1 ovarian | HS 578T breast | OVCAR-4 ovarian | MDA-MB-231 breast | UO-31 renal | OVCAR-3 ovarian | K-562 leukemia | M14 melanoma | ACHN renal | T-47D breast | CCRF-CEM leukemia | SN12C renal | HL-60(TB) leukemia | SF-295 CNS | SNB-75 CNS | NCI/ADR-RES ovarian | NCI-H226 lung | HOP-62 NSCLC | A498 renal | TK-10 renal | OVCAR-8 ovarian | CAKI-1 renal | SK-OV-3 ovarian | 786-0 renal | UACC-62 melanoma | RPMI-8226 leukemia | UACC-257 melanoma | MALME-3M melanoma | SNB-19 CNS | NCI-H23 lung | HCT-116 colon | NCI-H460 lung | SF-268 CNS | EKVX NSCLC | SK-MEL-28 melanoma | HOP-92 NSCLC | LOX IMVI melanoma | RXF 393 renal | DU-145 prostate | MDA-MB-435 | SR leukemia | MDA-N | COLO 205 colon | MCF7 breast

COC(=O)C1(CCC(=O)N(C)c2ccccc2)NNC2C(=O)N(c3ccccc3)C(=O)C21 (stereo not given)
> 10 µM: PC-3 prostate | U251 CNS | NCI-H522 lung | KM12 colon | SW-620 colon | HT29 colon | HCT-15 colon | SK-MEL-5 melanoma | SF-539 CNS | HCC-2998 colon | OVCAR-5 ovarian | BT-549 breast | A549 NSCLC | IGROV1 ovarian | HS 578T breast | OVCAR-4 ovarian | MDA-MB-231 breast | UO-31 renal | OVCAR-3 ovarian | M14 melanoma | ACHN renal | T-47D breast | CCRF-CEM leukemia | SN12C renal | HL-60(TB) leukemia | SF-295 CNS | SNB-75 CNS | NCI/ADR-RES ovarian | NCI-H226 lung | HOP-62 NSCLC | A498 renal | TK-10 renal | OVCAR-8 ovarian | CAKI-1 renal | SK-OV-3 ovarian | 786-0 renal | UACC-62 melanoma | RPMI-8226 leukemia | UACC-257 melanoma | MALME-3M melanoma | SNB-19 CNS | NCI-H23 lung | HCT-116 colon | NCI-H460 lung | SF-268 CNS | SK-MEL-2 melanoma | EKVX NSCLC | SK-MEL-28 melanoma | HOP-92 NSCLC | LOX IMVI melanoma | RXF 393 renal | DU-145 prostate | MDA-MB-435 | SR leukemia | MDA-N | COLO 205 colon | MCF7 breast
